Measured values from PMC7464785 (Pharmaceutics, 2020).
Several values for one entry are separate records, joined by “and”; a condition that tells them apart may be missing. Equal entries are not always repeated. Where two headings read alike, the source gives them in different places.

Key:
[1] = Pharmacokinetics after 1-min intravenous infusion to control, G-ARF and C-ARF rats; format: in vivo, Sprague–Dawley rats; conditions: for CLR estimated from free (unbound to plasma proteins) fractions in plasma: based on 20.7% plasma protein binding; for MRT / clearance / CL renal / half-life / Vd / AUC: Sprague-Dawley, rat, plasma, iv, 10 mg/kg; for clearance: read-out: CL (time-averaged total body clearance); for CL renal: read-out: CLR (time-averaged renal clearance); for half-life: read-out: Terminal half-life; for Vd: read-out: Vss; for AUC: time zero to infinity
Description: (§1) Rats were randomly divided into three groups: control, G-ARF, and C-ARF rats. Acute renal failure was induced in rats by intraperitoneal injection of gentamicin (100 mg/kg, dissolved in 0.9% NaCl-injectable solution) daily for 8 days or by a single intraperitoneal injection of cisplatin (7.5 mg/kg, dissolved in 0.9% NaCl-injectable solution), while control rats were injected with 0.9% NaCl-injectable solution only. […] BUN (Blood urea nitrogen) levels were measured in rats on the last day of induction using a BUN detection kit (Asan Pharmaceutical, Seoul, Korea). Rats with a urea nitrogen level of 36 mg/dL or higher were considered to be acute renal failure-induced and were selected for the study.
(§2) For oral and intravenous administration, pretreatment and surgical procedures were performed as previously reported. For oral study, the rats were restricted from eating food overnight but water was freely accessible. The next day, after anesthesia with ketamine at a dose of 100 mg/kg, polyethylene 50 tubes (Clay Adams, Parsippany, NJ, USA) was cannulated into the carotid artery for blood collection. For intravenous study, polyethylene 50 tubes were cannulated into the carotid artery and jugular vein for blood collection and drug administration, respectively. After surgery, rats were allowed to rest for 2–3 h to recover from anesthesia and were free in the individual metabolic cage during the experiment.
Blood samples (110 μL) were collected through the carotid artery at 0 (prior to drug infusion), 1 (at the end of drug infusion), 5, 15, 30, 45, 60, 90, 120, 180, 240, 360, 480, 600, and 720 min and were centrifuged at 8000 × g for 1 min. […] After collecting each blood sample, 0.3 mL of heparinized 0.9% NaCl-injectable solution (10 IU/mL) was immediately administered to the carotid artery to prevent blood clotting. At 24 h, the rat’s abdomen was open and the entire gastrointestinal tract was removed, transferred to a beaker with 50 mL of methanol, and cut into small pieces.
At 24 h after drug administration, urine samples were also collected. The metabolic cage was rinsed with 20 mL of distilled water, which was combined with the 24-h urine sample.
(§3) A 50-μL aliquot of biological sample was mixed with 1 μL hydrocortisone (5 mg/mL); then, 20 μL of 20% ammonia solution was added, mixed with a vortex-mixer (Scientific Industries, Bohemia, NY, USA) for 30 s, and extracted with 750 µL ethyl acetate. The organic layer was collected, evaporated on a thermobath (Eyela, Tokyo, Japan) under a gentle stream of nitrogen gas at 40 °C and redissolved by adding 130 µL 20% acetonitrile, and 50 µL of each reconstituted sample was analyzed by HPLC [12, 22].
(§4) The reconstituted biological samples were filtered through a 0.45-µm filter (Millipore, Billerica, MA, USA) and analyzed with a reversed-phase column (C18; 25 cm × 4.6 mm, 5 µm; Young Jin Biochrom, Seongnam, Korea) using a UV detector at 287 nm. The mobile phase consisted of 10 mM ammonium acetate buffer (pH 5.0) and acetonitrile at a ratio of 69.5:30.5 (v/v) with a flow rate of 1.0 mL/min.
(§5) To estimate pharmacokinetic parameters such as terminal half-life, the apparent volume of distribution at steady state (Vss), area under plasma concentration-time curves from time zero to time infinity (AUC), mean residence time (MRT), and time-averaged total body (CL), and renal (CLR) and nonrenal (CLNR) clearances, standard methods were applied using noncompartmental analysis (WinNonlin, Pharsight Corporation, Mountain View, CA, USA). AUCs were calculated using the trapezoidal rule-extrapolation method. The peak plasma concentration (Cmax) and time that the plasma concentration was peak (Tmax) were directly confirmed from plasma concentration-time curves.

[2] = test system: plasma proteins; assay: Plasma protein binding by equilibrium dialysis; format: in vitro ADME; conditions: plasma from control, G-ARF and C-ARF rats; data not shown
[3] = cited from earlier work
[4] = test system: plasma proteins; conditions: equilibrium dialysis; cited from earlier work
[5] = test system: hepatic microsomes
[6] = Pharmacokinetics after oral administration to control, G-ARF and C-ARF rats; format: in vivo, Sprague–Dawley rats; conditions: for CL renal: read-out: CLR (time-averaged renal clearance); for bioavailability: read-out: F (absolute oral bioavailability)
Description: as §1, §2
Blood samples (110 µL) were collected through the carotid artery at 0 (prior to drug administration), 5, 15, 30, 45, 60, 90, 120, 180, 240, 360, 480, 600, and 720 min. At 24 h after drug administration, urine and gastrointestinal tract samples were collected and handled similarly to those in the intravenous study.
as §3, §4
as §5, with “curves. To calculate the average values of clearances, terminal half-life, and Vss, the harmonic mean method was applied.” for “curves.”

[7] = intravenous doses over 20 mg/kg and oral doses over 50 mg/kg; cited from earlier work
[8] = hepatic microsomes of G-ARF rats, not significantly different
[9] = Sprague-Dawley, rat, plasma, po, 20 mg/kg, C-ARF rats
[10] = Sprague-Dawley, rat, plasma, po, 20 mg/kg, G-ARF rats
[11] = Sprague-Dawley, rat, plasma, po, 20 mg/kg, control rats
[12] = control rats, oral 20 mg/kg, 20 mg/kg

Ae0–24 h (dose excreted in the 24-h urine) ([1]; C-ARF rats, iv 10 mg/kg): 0.458 ± 0.626 % of dose | GI24 h (dose remaining in the gastrointestinal tract at 24 h) ([1]; C-ARF rats, iv 10 mg/kg): 0.195 ± 0.157 % of dose | decrease of Ae0–24 h versus control rats ([1]; C-ARF rats, iv 10 mg/kg): 95.2% | decrease of CL versus control rats ([1]; C-ARF rats, iv 10 mg/kg): 62.3% | decrease of CLNR versus control rats ([1]; C-ARF rats, iv 10 mg/kg): 57.4% | decrease of CLR versus control rats ([1]; C-ARF rats, iv 10 mg/kg): 98.6% | increase of AUC versus control rats ([1]; C-ARF rats, iv 10 mg/kg): 163% | increase of MRT versus control rats ([1]; C-ARF rats, iv 10 mg/kg): 154% | increase of terminal half-life versus control rats ([1]; C-ARF rats, iv 10 mg/kg): 240% | CLR estimated from free (unbound to plasma proteins) fractions in plasma ([1]; C-ARF rats, iv 10 mg/kg): 0.0856 mL/min/kg | Ae0–24 h (dose excreted in the 24-h urine) ([1]; G-ARF rats, iv 10 mg/kg): 5.92 ± 2.76 % of dose | GI24 h (dose remaining in the gastrointestinal tract at 24 h) ([1]; G-ARF rats, iv 10 mg/kg): 0.00919 ± 0.0225 % of dose | decrease of Ae0–24 h versus control rats ([1]; G-ARF rats, iv 10 mg/kg): 37.7% | decrease of CL versus control rats ([1]; G-ARF rats, iv 10 mg/kg): 37.7% | decrease of CLNR versus control rats ([1]; G-ARF rats, iv 10 mg/kg): 33.2% | decrease of CLR versus control rats ([1]; G-ARF rats, iv 10 mg/kg): 69.5% | increase of AUC versus control rats ([1]; G-ARF rats, iv 10 mg/kg): 64.0% | increase of MRT versus control rats ([1]; G-ARF rats, iv 10 mg/kg): 96.7% | increase of terminal half-life versus control rats ([1]; G-ARF rats, iv 10 mg/kg): 78.7% | CLR estimated from free (unbound to plasma proteins) fractions in plasma ([1]; G-ARF rats, iv 10 mg/kg): 1.83 mL/min/kg | MRT ([1]; C-ARF rats): 69.1 min | clearance ([1]; C-ARF rats): 14.7 ± 2.29 mL/min/kg | CL renal ([1]; C-ARF rats): 0.0679 ± 0.0917 mL/min/kg | half-life ([1]; C-ARF rats): 134 ± 40.9 min | Vd ([1]; C-ARF rats): 1 ± 0.558 L/kg | AUC ([1]; C-ARF rats): 11600 ng·h/mL | MRT ([1]; G-ARF rats): 53.5 min | clearance ([1]; G-ARF rats): 24.3 ± 6.95 mL/min/kg | CL renal ([1]; G-ARF rats): 1.45 ± 1.54 mL/min/kg | half-life ([1]; G-ARF rats): 70.4 ± 29.6 min | Vd ([1]; G-ARF rats): 1.17 ± 0.519 L/kg | AUC ([1]; G-ARF rats): 7220 ng·h/mL | MRT ([1]; control rats): 27.2 min | clearance ([1]; control rats): 39 ± 7.97 mL/min/kg | half-life ([1]; control rats): 39.4 ± 11.3 min | Vd ([1]; control rats): 1.04 ± 0.402 L/kg | AUC ([1]; control rats): 4400 ng·h/mL | Ae0–24 h (dose excreted in the 24-h urine) ([1]; control rats, iv 10 mg/kg): 9.51 ± 0.879 % of dose | CLR (time-averaged renal clearance) ([1]; control rats, iv 10 mg/kg): 4.75 ± 1.28 mL/min/kg | GI24 h (dose remaining in the gastrointestinal tract at 24 h) ([1]; control rats, iv 10 mg/kg): 0.153 ± 0.306 % of dose | CLR estimated from free (unbound to plasma proteins) fractions in plasma ([1]; control rats, iv 10 mg/kg): 5.99 mL/min/kg | free fractions in the plasma, comparison of groups [2]: comparable | decrease of Vmax for the disappearance of tofacitinib versus control rats ([5]; hepatic microsomes of C-ARF rats, not significantly different): 28.7% | decrease of CLint for the disappearance of tofacitinib versus control rats ([5]; hepatic microsomes of C-ARF rats, significantly lower): 54.4% | decrease of CLint for the disappearance of tofacitinib versus control rats [5, 8]: 31.1% | decrease of Vmax for the disappearance of tofacitinib versus control rats [5, 8]: 9.52% | Km values, comparison of groups ([5]; hepatic microsomes of control, G-ARF and C-ARF rats): comparable among the three groups | Ae0–24 h (dose excreted in the 24-h urine) ([6]; C-ARF rats, oral 20 mg/kg): 1.16 ± 1.37 % of dose | decrease of Ae0–24 h versus control rats ([6]; C-ARF rats, oral 20 mg/kg): 81.3% | increase of AUC versus control rats ([6]; C-ARF rats, oral 20 mg/kg): 247% | increase of Cmax versus control rats ([6]; C-ARF rats, oral 20 mg/kg): 141% | Ae0–24 h (dose excreted in the 24-h urine) ([6]; G-ARF rats, oral 20 mg/kg): 4.82 ± 3.06 % of dose | decrease of Ae0–24 h versus control rats ([6]; G-ARF rats, oral 20 mg/kg): 22.4% | decrease of CLR versus control rats ([6]; G-ARF rats, oral 20 mg/kg): 69.8% | increase of AUC versus control rats ([6]; G-ARF rats, oral 20 mg/kg): 142% | increase of Cmax versus control rats ([6]; G-ARF rats, oral 20 mg/kg): 198% | GI24 h (dose remaining in the gastrointestinal tract at 24 h) ([6]; G-ARF rats, oral 20 mg/kg, 20 mg/kg): 1.27 % of dose and 1.27 ± 1.72 % of dose | AUC [6, 9]: 12500 ng·h/mL | Tmax [6, 9]: 41.3 min | CL renal [6, 9]: 0.3 ± 0.495 mL/min/kg | Cmax ([6]; Sprague-Dawley, rat, plasma, po, 20 mg/kg, C-ARF rats, read-out: Cmax): 4200 ± 3030 ng/mL | bioavailability [6, 9]: 54.3% | AUC [6, 10]: 8750 ng·h/mL | Tmax [6, 10]: 30.8 min | CL renal [6, 10]: 1.71 ± 0.871 mL/min/kg | Cmax ([6]; Sprague-Dawley, rat, plasma, po, 20 mg/kg, G-ARF rats, read-out: Cmax): 5180 ± 2590 ng/mL | bioavailability [6, 10]: 60.7% | AUC [6, 11]: 3620 ng·h/mL | Tmax [6, 11]: 71.9 min | CL renal [6, 11]: 5.66 ± 1.03 mL/min/kg | bioavailability [6, 11]: 41.3% | GI24 h ([6]; across control, G-ARF and C-ARF rats, oral 20 mg/kg): less than 1.27 % of oral dose | Cmax ([6]; control rats, oral 20 mg/kg): 1740 ± 606 ng/mL | Ae0–24 h (dose excreted in the 24-h urine) [6, 12]: 6.21 % of dose and 6.21 ± 1.12 % of dose
SMILES: C[C@@H]1CCN(C(=O)CC#N)C[C@@H]1N(C)c1ncnc2[nH]ccc12 [tofacitinib, Tofacitinib]
half-life ([3]; healthy volunteers, oral 10 mg): 192 min | oral dose bound to plasma protein ([3]; healthy volunteers, oral 10 mg): Approximately 40% | volume of distribution ([3]; healthy volunteers, oral 10 mg): 87 L | Absolute oral bioavailability (F) ([3]; human): approximately 74% | plasma protein binding [4]: 20.7% | GI24 h (dose remaining in the gastrointestinal tract at 24 h) ([6]; C-ARF rats, oral 20 mg/kg, 20 mg/kg): 0.505 % of dose and 0.505 ± 0.535 % of dose | GI24 h (dose remaining in the gastrointestinal tract at 24 h) [6, 12]: 0.231 % of dose and 0.231 ± 0.235 % of dose | dose proportionality of AUCs [7]: not dose proportional
